Reference: patent publication US20070111981A1, “New (hetero)aryl compounds with MCH antagonistic activity and medicaments comprising these compounds” (priority 2005, published 2007)

Assays:
hMCH-1R = target: T1, hMCH-1R (Homo sapiens, UniProt Q99705); test: MCH-1 receptor binding test (125I-MCH binding to membranes of hMCH-1R transfected CHO/Galpha16 cells); details: displacement of 125I-MCH, hMCH-1R CHO/Galpha16 membranes
T1 construct: expressed in transfected cells
Protocol: MCH-1 Receptor Binding Test
Method: MCH binding to hMCH-1R transfected cells
Test cell: hMCH-1R stably transfected into CHO/Galphal 6 cells
Membranes from CHO/Galphal6 cells stably transfected with human hMCH-1R are resuspended using a syringe (needle 0.6×25 mm) and diluted in test buffer (50 mM HEPES, 10 mM MgCl2, 2 mM EGTA, pH 7.00; 0.1% bovine serum albumin (protease-free), 0.021% bacitracin, 1 μg/ml aprotinin, 1 μg/ml leupeptin and 1 μM phosphoramidone) to a concentration of 5 to 15 μg/ml.
After the incubation the reaction is filtered using a cell harvester through 0.5% PEI treated fibreglass filters (GF/B, Unifilter Packard). The membrane-bound radioactivity retained on the filter is then determined after the addition of scintillator substance (Packard Microscint 20) in a measuring device (TopCount of Packard).
The non-specific binding is defined as bound radioactivity in the presence of 1 micromolar MCH during the incubation period.
The analysis of the concentration binding curve is carried out on the assumption of one receptor binding site.

T1 sequence (Q99705 whole entry): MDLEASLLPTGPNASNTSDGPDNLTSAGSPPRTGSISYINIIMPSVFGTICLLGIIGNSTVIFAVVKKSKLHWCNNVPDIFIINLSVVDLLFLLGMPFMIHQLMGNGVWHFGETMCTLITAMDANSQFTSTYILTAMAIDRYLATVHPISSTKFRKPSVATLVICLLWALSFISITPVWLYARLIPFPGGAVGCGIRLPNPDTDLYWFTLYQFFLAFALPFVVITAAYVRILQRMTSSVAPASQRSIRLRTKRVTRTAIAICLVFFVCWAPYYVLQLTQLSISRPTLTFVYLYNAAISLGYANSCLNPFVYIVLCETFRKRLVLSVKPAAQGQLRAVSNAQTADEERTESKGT

| Structure (SMILES) | melting point [°C] | IC50 (hMCH-1R) [nM] |
| --- | --- | --- |
| CC1CCN(Cc2ccc(NCCCc3ccc(-c4ccc(Cl)cc4)cc3)cc2)CC1 [Example 1.1, [3-(4′-Chloro-biphenyl-4-yl)-propyl]-[4-(4-methyl-piperidin-1-ylmethyl)-phenyl]-amine] | 69 to 71 |  |
| COc1ccc(-c2ccc(CCCNc3ccc(CN4CCC(NC(C)=O)C4)cc3)nn2)cc1 (centres unmarked) [Example 3.30, N-[1-(4-{3-[6-(4-Methoxy-phenyl)-pyridazin-3-yl]-propylamino}-benzyl)-pyrrolidin-3-yl]-acetamide] |  | 79 |
| CN(C)Cc1ccc(NCCCc2ccc(-c3ccc(Cl)cc3)cc2)cc1 [Example 4.1, [3-(4′-Chloro-biphenyl-4-yl)-propyl]-(4-dimethylaminomethyl-phenyl)-amine] | 85 to 90 |  |
| OC1(C(F)(F)F)CCN(Cc2ccc(NCCCc3ccc(-c4ccc(Cl)cc4)cc3)nc2)CC1 [Example 5.1] | 170 to 172 |  |
| COc1ccc(-c2ccc(NCCCc3ccc(CN4CCC(O)CC4)cc3)nn2)cc1 [Example 9.1, 1-(4-{3-[6-(4-Methoxy-phenyl)-pyridazin-3-ylamino]-propyl}-benzyl)-piperidin-4-ol] |  | 174 |
| CCN(CC)CCOc1ccc(OCCOc2ccc(I)cc2Cl)cc1Cl [Example 12.1, (2-{2-Chloro-4-[2-(2-chloro-4-iodo-phenoxy)-ethoxy]-phenoxy}-ethyl)-diethyl-amine] |  | 172 |
| COc1ccc(-c2ccc(CCCNc3ccc4c(c3)CN(C)CC4)nn2)cc1 [Example 19.1, {3-[6-(4-Methoxy-phenyl)-pyridazin-3-yl]-propyl}-(2-methyl-1,2,3,4-tetrahydro-isoquinolin-7-yl)-amine] | 130 to 133 |  |
| Oc1ccc(-c2ccc(CCCNc3ccc(CN4CCC(O)(C(F)(F)F)CC4)cc3)nn2)cc1 [Example 21.1] | 200 to 204 |  |
